Assay results: ChEMBL document CHEMBL3112450, “Synthesis and in vitro antitumor evaluation of primary amine substituted quinazoline linked benzimidazole” (Bioorg Med Chem Lett, 2014)

Legend:
Format in all cases: functional
MDA-MB-468 = assay: Cytotoxicity against human MDA-MB-468 cells assessed as cell growth at 10^-5 M after 48 hrs by SRB assay; conditions: MDA-MB-468, 48 h, read-out: Activity
BT-549 = assay: Cytotoxicity against human BT549 cells assessed as cell growth at 10^-5 M after 48 hrs by SRB assay; conditions: BT-549, 48 h, read-out: Activity
DU-145 = assay: Cytotoxicity against human DU145 cells assessed as cell growth at 10^-5 M after 48 hrs by SRB assay; conditions: DU-145, 48 h, read-out: Activity
[1] = Cytotoxicity against human UO31 cells assessed as cell growth at 10^-5 M after 48 hrs by SRB assay; conditions: UO-31, 48 h, read-out: Activity
TK-10 = assay: Cytotoxicity against human TK10 cells assessed as cell growth at 10^-5 M after 48 hrs by SRB assay; conditions: TK-10, 48 h, read-out: Activity
ACHN = assay: Cytotoxicity against human ACHN cells assessed as cell growth at 10^-5 M after 48 hrs by SRB assay; conditions: read-out: Activity
CAKI-1 = assay: Cytotoxicity against human Caki1 cells assessed as cell growth at 10^-5 M after 48 hrs by SRB assay; conditions: CAKI-1, 48 h, read-out: Activity
SK-OV-3 = assay: Cytotoxicity against human SKOV3 cells assessed as cell growth at 10^-5 M after 48 hrs by SRB assay; conditions: SK-OV-3, 48 h, read-out: Activity
786-0 = assay: Cytotoxicity against human 786-0 cells assessed as cell growth at 10^-5 M after 48 hrs by SRB assay; conditions: 786-0, 48 h, read-out: Activity
OVCAR-8 = assay: Cytotoxicity against human OVCAR8 cells assessed as cell growth at 10^-5 M after 48 hrs by SRB assay; conditions: OVCAR-8, 48 h, read-out: Activity
[2] = Cytotoxicity against human OVCAR5 cells assessed as cell growth at 10^-5 M after 48 hrs by SRB assay; conditions: OVCAR-5, 48 h, read-out: Activity
IGROV-1 = assay: Cytotoxicity against human IGROV1 cells assessed as cell growth at 10^-5 M after 48 hrs by SRB assay; conditions: IGROV-1, 48 h, read-out: Activity
UACC-62 = assay: Cytotoxicity against human UACC62 cells assessed as cell growth at 10^-5 M after 48 hrs by SRB assay; conditions: UACC-62, 48 h, read-out: Activity
SK-MEL-5 = assay: Cytotoxicity against human SK-MEL-5 cells assessed as cell growth at 10^-5 M after 48 hrs by SRB assay; conditions: SK-MEL-5, 48 h, read-out: Activity
SK-MEL-2 = assay: Cytotoxicity against human SK-MEL-2 cells assessed as cell growth at 10^-5 M after 48 hrs by SRB assay; conditions: SK-MEL-2, 48 h, read-out: Activity
SK-MEL-28 = assay: Cytotoxicity against human SK-MEL-28 cells assessed as cell growth at 10^-5 M after 48 hrs by SRB assay; conditions: SK-MEL-28, 48 h, read-out: Activity
M14 = assay: Cytotoxicity against human M14 cells assessed as cell growth at 10^-5 M after 48 hrs by SRB assay; conditions: M14, 48 h, read-out: Activity
Malme-3M = assay: Cytotoxicity against human MALME-3M cells assessed as cell growth at 10^-5 M after 48 hrs by SRB assay; conditions: read-out: Activity
U-251 = assay: Cytotoxicity against human U251 cells assessed as cell growth at 10^-5 M after 48 hrs by SRB assay; conditions: U-251, 48 h, read-out: Activity
SNB-19 = assay: Cytotoxicity against human SNB19 cells assessed as cell growth at 10^-5 M after 48 hrs by SRB assay; conditions: SNB-19, 48 h, read-out: Activity
SW-620 = assay: Cytotoxicity against human SW620 cells assessed as cell growth at 10^-5 M after 48 hrs by SRB assay; conditions: SW-620, 48 h, read-out: Activity
HT-29 = assay: Cytotoxicity against human HT-29 cells assessed as cell growth at 10^-5 M after 48 hrs by SRB assay; conditions: HT-29, 48 h, read-out: Activity
HCT-15 = assay: Cytotoxicity against human HCT15 cells assessed as cell growth at 10^-5 M after 48 hrs by SRB assay; conditions: HCT-15, 48 h, read-out: Activity
HCC 2998 = assay: Cytotoxicity against human HCC2998 cells assessed as cell growth at 10^-5 M after 48 hrs by SRB assay; conditions: HCC 2998, 48 h, read-out: Activity
NCI-H522 = assay: Cytotoxicity against human NCI-H522 cells assessed as cell growth at 10^-5 M after 48 hrs by SRB assay; conditions: NCI-H522, 48 h, read-out: Activity
NCI-H460 = assay: Cytotoxicity against human NCI-H460 cells assessed as cell growth at 10^-5 M after 48 hrs by SRB assay; conditions: NCI-H460, 48 h, read-out: Activity
NCI-H322M = assay: Cytotoxicity against human NCI-H322M cells assessed as cell growth at 10^-5 M after 48 hrs by SRB assay; conditions: read-out: Activity
NCI-H23 = assay: Cytotoxicity against human NCI-H23 cells assessed as cell growth at 10^-5 M after 48 hrs by SRB assay; conditions: NCI-H23, 48 h, read-out: Activity
NCI-H226 = assay: Cytotoxicity against human NCI-H226 cells assessed as cell growth at 10^-5 M after 48 hrs by SRB assay; conditions: NCI-H226, 48 h, read-out: Activity
A549 = assay: Cytotoxicity against human A549 cells assessed as cell growth at 10^-5 M after 48 hrs by SRB assay; conditions: A549, 48 h, read-out: Activity
HOP-62 = assay: Cytotoxicity against human HOP62 cells assessed as cell growth at 10^-5 M after 48 hrs by SRB assay; conditions: HOP-62, 48 h, read-out: Activity
SR = assay: Cytotoxicity against human SR cells assessed as cell growth at 10^-5 M after 48 hrs by SRB assay; conditions: read-out: Activity
RPMI-8226 = assay: Cytotoxicity against human RPMI8226 cells assessed as cell growth at 10^-5 M after 48 hrs by SRB assay; conditions: RPMI-8226, 48 h, read-out: Activity
K562 = assay: Cytotoxicity against human K562 cells assessed as cell growth at 10^-5 M after 48 hrs by SRB assay; conditions: K562, 48 h, read-out: Activity
MOLT-4 = assay: Cytotoxicity against human MOLT4 cells assessed as cell growth at 10^-5 M after 48 hrs by SRB assay; conditions: MOLT-4, 48 h, read-out: Activity
HL-60(TB) = assay: Cytotoxicity against human HL-60(TB) cells assessed as cell growth at 10^-5 M after 48 hrs by SRB assay; conditions: HL-60, 48 h, read-out: Activity
CCRF-CEM = assay: Cytotoxicity against human CCRF-CEM cells assessed as cell growth at 10^-5 M after 48 hrs by SRB assay; conditions: read-out: Activity

Row | SMILES | growth at 10 µM (MDA-MB-468) [%] | growth at 10 µM (BT-549) [%] | growth at 10 µM (DU-145) [%] | growth at 10 µM [1] [%] | growth at 10 µM (TK-10) [%] | growth at 10 µM (ACHN) [%] | growth at 10 µM (CAKI-1) [%] | growth at 10 µM (SK-OV-3) [%] | growth at 10 µM (786-0) [%] | growth at 10 µM (OVCAR-8) [%] | growth at 10 µM [2] [%] | growth at 10 µM (IGROV-1) [%] | growth at 10 µM (UACC-62) [%] | growth at 10 µM (SK-MEL-5) [%] | growth at 10 µM (SK-MEL-2) [%] | growth at 10 µM (SK-MEL-28) [%] | growth at 10 µM (M14) [%] | growth at 10 µM (Malme-3M) [%] | growth at 10 µM (U-251) [%] | growth at 10 µM (SNB-19) [%] | further results
1 | C=CCn1c(C)nc2ccc(Nc3nc(Nc4ccc5nc(C)n(CC=C)c5c4)c4ccccc4n3)cc21 | -99 | -86 | -98 | -91.4 | -97 | -99 | -81 | -100 | -93.8 | -76 | -98 | -87 | -100 | -98 | -88 | -96 | -95 | -78.9 | -100 | -69 | growth at 10 µM (SW-620): -91%; growth at 10 µM (HT-29): -96.7%; growth at 10 µM (HCT-15): -74%; growth at 10 µM (HCC 2998): -100%; growth at 10 µM (NCI-H522): -94%; growth at 10 µM (NCI-H460): -74%; growth at 10 µM (NCI-H322M): -88%; growth at 10 µM (NCI-H23): -89%; growth at 10 µM (NCI-H226): -87%; growth at 10 µM (A549): -90%; growth at 10 µM (HOP-62): -100%; growth at 10 µM (SR): -57.2%; growth at 10 µM (RPMI-8226): -43.3%; growth at 10 µM (K562): -49%; growth at 10 µM (MOLT-4): -45.5%; growth at 10 µM (HL-60(TB)): -71%; growth at 10 µM (CCRF-CEM): -20.8%
2 | C=CCn1c(C)nc2cc(Nc3nc(Nc4ccc5nc(C)n(CC=C)c5c4)c4ccccc4n3)ccc21 | -85 | -96 | -100 | -99 | -100 | -100 | -95 | -95.7 | -80 | -40.9 | -98 | -93.8 | -94 | -95.2 | -84.1 | -88 | -88 | -76 | -90.7 | -75 | growth at 10 µM (SW-620): -76.2%; growth at 10 µM (HT-29): -71%; growth at 10 µM (HCT-15): -78%; growth at 10 µM (HCC 2998): -98%; growth at 10 µM (NCI-H522): -94.8%; growth at 10 µM (NCI-H460): -84.2%; growth at 10 µM (NCI-H322M): -100%; growth at 10 µM (NCI-H23): -69.2%; growth at 10 µM (NCI-H226): -47.1%; growth at 10 µM (A549): -67.1%; growth at 10 µM (HOP-62): -99.5%; growth at 10 µM (SR): -44.2%; growth at 10 µM (RPMI-8226): -41%; growth at 10 µM (K562): -67%; growth at 10 µM (MOLT-4): -29%; growth at 10 µM (HL-60(TB)): -70%; growth at 10 µM (CCRF-CEM): -29%
3 | C=CCn1c(C)nc2ccc(Nc3nc(Nc4ccc(F)cc4)nc4ccccc34)cc21 | -90 | 21 | 47 | 33 | 40 | -54 | 42 | -74 | 43 | 4 | 59 | 39 | -69 | -100 | 4 | -91 | 8 | 63 | 17 | 48 | growth at 10 µM (SW-620): 1%; growth at 10 µM (HT-29): 5%; growth at 10 µM (HCT-15): 1%; growth at 10 µM (HCC 2998): 47%; growth at 10 µM (NCI-H522): 8%; growth at 10 µM (NCI-H460): 11%; growth at 10 µM (NCI-H322M): 41%; growth at 10 µM (NCI-H23): 28%; growth at 10 µM (NCI-H226): -62%; growth at 10 µM (A549): 26%; growth at 10 µM (HOP-62): -70%; growth at 10 µM (SR): -27%; growth at 10 µM (RPMI-8226): -43%; growth at 10 µM (K562): 3%; growth at 10 µM (MOLT-4): -18%; growth at 10 µM (HL-60(TB)): 26%; growth at 10 µM (CCRF-CEM): 2%
